Reference: PubChem BioAssay AID2060618 (Molecular Pharmacology Branch, DTP, NCI, 2025)

Tested on: 454973-116-R2-J3-PDC spheroids, percent test/control viability
Assay: Anticancer human tumor 454973-116-R2-J3-PDC patient-derived pancreatic carcinoma cell line growth inhibition [CLK]
Settings: spheroids with HUVEC and MSC; for IC50: curve of first compound; for viability, T/C: stronger effect = lower value
Summary of the method: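 Multi-cell-type spheroids combined patient-derived tumor cells with HUVEC endothelial cells and human mesenchymal stem cells. Paired agents were dosed in half-log steps down from about clinical Cmax, or from 10 microM where Cmax was unknown.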

[1] = second compound 0.0316 µM, first compound 0.0316 µM
[2] = second compound 0.0316 µM, first compound 0.1 µM
[3] = second compound 0.0316 µM, first compound 0.316 µM
[4] = second compound 0.0316 µM, first compound 1 µM
[5] = second compound 0.1 µM, first compound 0.0316 µM
[6] = second compound 0.1 µM, first compound 0.1 µM
[7] = second compound 0.1 µM, first compound 0.316 µM
[8] = second compound 0.1 µM, first compound 1 µM
[9] = second compound 0.316 µM, first compound 0.0316 µM
[10] = second compound 0.316 µM, first compound 0.1 µM
[11] = second compound 0.316 µM, first compound 0.316 µM
[12] = second compound 0.316 µM, first compound 1 µM
[13] = second compound 1 µM, first compound 0.0316 µM
[14] = second compound 1 µM, first compound 0.1 µM
[15] = second compound 1 µM, first compound 0.316 µM
[16] = second compound 1 µM, first compound 1 µM
[17] = second compound 3.16 µM, first compound 0.0316 µM
[18] = second compound 3.16 µM, first compound 0.1 µM
[19] = second compound 3.16 µM, first compound 0.316 µM
[20] = second compound 3.16 µM, first compound 1 µM
[21] = second compound 10 µM, first compound 0.0316 µM
[22] = second compound 10 µM, first compound 0.1 µM
[23] = second compound 10 µM, first compound 0.316 µM
[24] = second compound 10 µM, first compound 1 µM
[25] = second compound 0.0316 µM, first compound 3.16 µM
[26] = second compound 0.0316 µM, first compound 10 µM
[27] = second compound 0.1 µM, first compound 3.16 µM
[28] = second compound 0.1 µM, first compound 10 µM
[29] = second compound 0.316 µM, first compound 3.16 µM
[30] = second compound 0.316 µM, first compound 10 µM
[31] = second compound 1 µM, first compound 3.16 µM
[32] = second compound 1 µM, first compound 10 µM
[33] = second compound 3.16 µM, first compound 3.16 µM
[34] = second compound 3.16 µM, first compound 10 µM
[35] = second compound 10 µM, first compound 3.16 µM
[36] = second compound 10 µM, first compound 10 µM
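Note: spheroids exposed to compounds for 7 days before readout.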

Structure (SMILES): CCc1c2c(nc3ccc(O)cc13)-c1cc3c(c(=O)n1C2)COC(=O)[C@]3(O)CC + CN1CCN(c2cc(C(=O)Nc3cc4cc(-c5cnn(C)c5)ccc4cn3)ccn2)CC1
- IC50 (second compound 0.0316 µM): < 0.00316 µM
- IC50 (second compound 0.1 µM): < 0.00316 µM
- IC50 (second compound 0.316 µM): < 0.00316 µM
- IC50 (second compound 1 µM): < 0.00316 µM
- IC50 (second compound 3.16 µM): < 0.00316 µM
- IC50 (second compound 10 µM): < 0.00316 µM
- viability, T/C (second compound 0.0316 µM, first compound 0.00316 µM): 26.9%
- viability, T/C (second compound 0.0316 µM, first compound 0.01 µM): 17.1%
- viability, T/C [1]: 12.6%
- viability, T/C [2]: 6.38%
- viability, T/C [3]: 3.17%
- viability, T/C [4]: 0.71%
- viability, T/C (second compound 0.1 µM, first compound 0.00316 µM): 21.8%
- viability, T/C (second compound 0.1 µM, first compound 0.01 µM): 21.1%
- viability, T/C [5]: 9.73%
- viability, T/C [6]: 3.23%
- viability, T/C [7]: 1.75%
- viability, T/C [8]: 0.31%
- viability, T/C (second compound 0.316 µM, first compound 0.00316 µM): 2.15%
- viability, T/C (second compound 0.316 µM, first compound 0.01 µM): 3.91%
- viability, T/C [9]: 2.2%
- viability, T/C [10]: 0.98%
- viability, T/C [11]: 0.1%
- viability, T/C [12]: 0.1%
- viability, T/C (second compound 1 µM, first compound 0.00316 µM): 0.08%
- viability, T/C (second compound 1 µM, first compound 0.01 µM): 0.1%
- viability, T/C [13]: 0.1%
- viability, T/C [14]: 0.05%
- viability, T/C [15]: 0.07%
- viability, T/C [16]: 0.09%
- viability, T/C (second compound 3.16 µM, first compound 0.00316 µM): 0.1%
- viability, T/C (second compound 3.16 µM, first compound 0.01 µM): 0.13%
- viability, T/C [17]: 0.14%
- viability, T/C [18]: 0.11%
- viability, T/C [19]: 0.16%
- viability, T/C [20]: 0.15%
- viability, T/C (second compound 10 µM, first compound 0.00316 µM): 0.07%
- viability, T/C (second compound 10 µM, first compound 0.01 µM): 0.12%
- viability, T/C [21]: 0.17%
- viability, T/C [22]: 0.18%
- viability, T/C [23]: 0.21%
- viability, T/C [24]: 0.18%

Structure (SMILES): Nc1ccn(C2OC(CO)C(O)C2(F)F)c(=O)n1 (stereo unspecified) + CN1CCN(c2cc(C(=O)Nc3cc4cc(-c5cnn(C)c5)ccc4cn3)ccn2)CC1
- IC50 (second compound 0.0316 µM): < 0.0316 µM
- IC50 (second compound 0.1 µM): < 0.0316 µM
- IC50 (second compound 0.316 µM): < 0.0316 µM
- IC50 (second compound 1 µM): < 0.0316 µM
- IC50 (second compound 3.16 µM): < 0.0316 µM
- IC50 (second compound 10 µM): < 0.0316 µM
- viability, T/C [1]: 10.3%
- viability, T/C [2]: 9.2%
- viability, T/C [3]: 11.2%
- viability, T/C [4]: 10.4%
- viability, T/C [25]: 11%
- viability, T/C [26]: 12.3%
- viability, T/C [5]: 10.3%
- viability, T/C [6]: 10.5%
- viability, T/C [7]: 8.35%
- viability, T/C [8]: 11.8%
- viability, T/C [27]: 12.8%
- viability, T/C [28]: 10.7%
- viability, T/C [9]: 1.34%
- viability, T/C [10]: 3.55%
- viability, T/C [11]: 1.4%
- viability, T/C [12]: 1.47%
- viability, T/C [29]: 1.66%
- viability, T/C [30]: 1.1%
- viability, T/C [13]: 1.36%
- viability, T/C [14]: 0.1%
- viability, T/C [15]: 0.67%
- viability, T/C [16]: 0.06%
- viability, T/C [31]: 0.07%
- viability, T/C [32]: 1.87%
- viability, T/C [17]: 0.13%
- viability, T/C [18]: 0.16%
- viability, T/C [19]: 0.18%
- viability, T/C [20]: 0.15%
- viability, T/C [33]: 0.15%
- viability, T/C [34]: 0.15%
- viability, T/C [21]: 0.16%
- viability, T/C [22]: 0.66%
- viability, T/C [23]: 0.22%
- viability, T/C [24]: 1.09%
- viability, T/C [35]: 0.2%
- viability, T/C [36]: 1.04%

Structure (SMILES): O=c1[nH]cc(F)c(=O)[nH]1 + CN1CCN(c2cc(C(=O)Nc3cc4cc(-c5cnn(C)c5)ccc4cn3)ccn2)CC1
- IC50 (second compound 0.0316 µM): 1.94 µM
- IC50 (second compound 0.1 µM): 1.33 µM
- IC50 (second compound 0.316 µM): < 0.0316 µM
- IC50 (second compound 1 µM): < 0.0316 µM
- IC50 (second compound 3.16 µM): < 0.0316 µM
- IC50 (second compound 10 µM): < 0.0316 µM
- viability, T/C [1]: 93%
- viability, T/C [2]: 102%
- viability, T/C [3]: 95.2%
- viability, T/C [4]: 71.3%
- viability, T/C [25]: 30.6%
- viability, T/C [26]: 37.9%
- viability, T/C [5]: 73%
- viability, T/C [6]: 86.7%
- viability, T/C [7]: 73.5%
- viability, T/C [8]: 57.1%
- viability, T/C [27]: 27.7%
- viability, T/C [28]: 30.2%
- viability, T/C [9]: 2.26%
- viability, T/C [10]: 2.2%
- viability, T/C [11]: 3.74%
- viability, T/C [12]: 2.11%
- viability, T/C [29]: 3.66%
- viability, T/C [30]: 2.07%
- viability, T/C [13]: 0.1%
- viability, T/C [14]: 0.11%
- viability, T/C [15]: 0.74%
- viability, T/C [16]: 0.06%
- viability, T/C [31]: 0.05%
- viability, T/C [32]: 0.08%
- viability, T/C [17]: 0.14%
- viability, T/C [18]: 0.39%
- viability, T/C [19]: 0.44%
- viability, T/C [20]: 0.1%
- viability, T/C [33]: 0.14%
- viability, T/C [34]: 0.59%
- viability, T/C [21]: 0.05%
- viability, T/C [22]: 0.14%
- viability, T/C [23]: 0.14%
- viability, T/C [24]: 0.17%
- viability, T/C [35]: 0.16%
- viability, T/C [36]: 0.17%
